The text below walks through data of ChEMBL document CHEMBL2424540, “Synthesis and pharmacological evaluation of novel 1-(piperidin-4-yl)-1H-benzo[d]imidazol-2(3H)-one derivatives as potential antimicrobial agents” (2013).

What all share (type): functional
One experiment has as its system Aspergillus clavatus. The experiment in a line: Antifungal activity against Aspergillus clavatus MTCC 1323 at 50 mg/ml after 24 hrs by disk agar diffusion technique. Conditions: MTCC 1323, 24 h, read-out: DIZ. Background: Agar diffusion results depend on both activity and mobility in agar.
Another experiment deals with Candida albicans. The experiment in a line: Antifungal activity against Candida albicans MTCC 227 at 50 mg/ml after 24 hrs by disk agar diffusion technique. The conditions noted are these: MTCC 227, 24 h, read-out: DIZ.
The subject of the next experiment is Pseudomonas aeruginosa. The experiment in a line: Antibacterial activity against Pseudomonas aeruginosa MTCC 424 at 50 mg/ml after 24 hrs by disk agar diffusion technique. Conditions: MTCC 424, 24 h, read-out: DIZ.
For a further experiment, the system named is Escherichia coli. The experiment in a line: Antibacterial activity against Escherichia coli MTCC 443 at 50 mg/ml after 24 hrs by disk agar diffusion technique. The conditions noted are these: MTCC 443, 24 h, read-out: DIZ.
In a further experiment the test system is Streptococcus pyogenes. The experiment in a line: Antibacterial activity against Streptococcus pyogenes MTCC 442 at 50 mg/ml after 24 hrs by disk agar diffusion technique. Conditions: MTCC 442, 24 h, read-out: DIZ.
The test system of a further experiment is Staphylococcus aureus. The experiment in a line: Antibacterial activity against Staphylococcus aureus MTCC 96 at 50 mg/ml after 24 hrs by disk agar diffusion technique. The conditions noted are these: MTCC 96, 24 h, read-out: DIZ.

In the case of `CCOC(=O)Cn1c(=O)n(C2CCN(C3CCc4cc(OC)c(OC)cc43)CC2)c2ccc(Cl)cc21` (centres undefined), the zone of inhibition at 50000 µg/mL was 14 mm in the experiment on Aspergillus clavatus; 15 mm in the experiment on Candida albicans; 11 mm in the experiment with Pseudomonas aeruginosa; 12 mm with Escherichia coli; 16 mm in the experiment on Streptococcus pyogenes; 14 mm in the experiment with Staphylococcus aureus.
In the case of `CCOC(=O)n1c(=O)n(C2CCN(C3CCc4cc(OC)c(OC)cc43)CC2)c2ccc(Cl)cc21` (centres undefined), the zone of inhibition at 50000 µg/mL in the experiment on Aspergillus clavatus came to 21 mm; in the experiment with Candida albicans, 7 mm; in the experiment with Pseudomonas aeruginosa it was 13 mm; with Escherichia coli, 15 mm; in the experiment with Streptococcus pyogenes it was 14 mm; with Staphylococcus aureus, 11 mm.
`CCN(CC)C(=O)n1c(=O)n(C2CCN(C3CCc4cc(OC)c(OC)cc43)CC2)c2ccc(Cl)cc21` (centres undefined): the zone of inhibition at 50000 µg/mL in the experiment on Aspergillus clavatus is 11 mm; in the experiment with Candida albicans, 10 mm; in the experiment with Pseudomonas aeruginosa, 8 mm; in the experiment with Escherichia coli, 13 mm; with Streptococcus pyogenes it was 11 mm; in the experiment with Staphylococcus aureus it was 20 mm.
Regarding `COc1cc2c(cc1OC)C(N1CCC(n3c(=O)n(CCCl)c4cc(Cl)ccc43)CC1)CC2` (centres undefined), the zone of inhibition at 50000 µg/mL was 13 mm in the experiment on Aspergillus clavatus; 17 mm in the experiment on Candida albicans; 11 mm with Pseudomonas aeruginosa; 10 mm with Escherichia coli; 16 mm with Streptococcus pyogenes; 18 mm in the experiment with Staphylococcus aureus.
Regarding `COc1cc2c(cc1OC)C(N1CCC(n3c(=O)n(CCCN(C)C)c4cc(Cl)ccc43)CC1)CC2` (centres undefined), the zone of inhibition at 50000 µg/mL in the experiment with Aspergillus clavatus was found to be 10 mm; in the experiment with Candida albicans, 18 mm; in the experiment with Pseudomonas aeruginosa, 16 mm; with Escherichia coli, 14 mm; with Streptococcus pyogenes it was 18 mm; with Staphylococcus aureus, 13 mm.
With `COCn1c(=O)n(C2CCN(C3CCc4cc(OC)c(OC)cc43)CC2)c2ccc(Cl)cc21` (centres undefined), the zone of inhibition at 50000 µg/mL in the experiment with Aspergillus clavatus turned out to be 15 mm; in the experiment with Candida albicans, 24 mm; in the experiment with Pseudomonas aeruginosa, 15 mm; with Escherichia coli, 14 mm; in the experiment on Streptococcus pyogenes, 13 mm; in the experiment with Staphylococcus aureus, 10 mm.
Turning to `COc1cc2c(cc1OC)C(N1CCC(n3c(=O)n(Cc4ccccc4)c4cc(Cl)ccc43)CC1)CC2` (centres undefined), the zone of inhibition at 50000 µg/mL in the experiment with Aspergillus clavatus is 17 mm; in the experiment on Candida albicans, 25 mm; in the experiment on Pseudomonas aeruginosa, 13 mm; with Escherichia coli it was 11 mm; with Streptococcus pyogenes, 10 mm; in the experiment on Staphylococcus aureus, 11 mm.
Regarding `COc1cc2c(cc1OC)C(N1CCC(n3c(=O)n(Cc4ccc(Cl)cc4)c4cc(Cl)ccc43)CC1)CC2` (centres undefined), the zone of inhibition at 50000 µg/mL is 19 mm in the experiment with Aspergillus clavatus; 16 mm in the experiment on Candida albicans; 9 mm in the experiment with Pseudomonas aeruginosa; 19 mm with Escherichia coli; 9 mm in the experiment with Streptococcus pyogenes; 17 mm in the experiment with Staphylococcus aureus.
`COc1cc2c(cc1OC)C(N1CCC(n3c(=O)n(Cc4ccc([N+](=O)[O-])cc4)c4cc(Cl)ccc43)CC1)CC2` (centres undefined): the zone of inhibition at 50000 µg/mL with Aspergillus clavatus was 22 mm; with Candida albicans, 17 mm; in the experiment on Pseudomonas aeruginosa it was 10 mm; in the experiment on Escherichia coli it was 17 mm; in the experiment with Streptococcus pyogenes it was 11 mm; in the experiment with Staphylococcus aureus it was 13 mm.
On to `CC1(C)S[C@@H]2[C@H](NC(=O)[C@H](N)c3ccccc3)C(=O)N2[C@H]1C(=O)O` [AMPICILLIN], for which the zone of inhibition at 50000 µg/mL with Pseudomonas aeruginosa was determined as 20 mm; in the experiment with Escherichia coli it was 20 mm; in the experiment with Streptococcus pyogenes it was 19 mm; in the experiment on Staphylococcus aureus, 18 mm.
`O=C(N[C@H](CO)[C@H](O)c1ccc([N+](=O)[O-])cc1)C(Cl)Cl` [CHLORAMPHENICOL]: the zone of inhibition at 50000 µg/mL in the experiment on Pseudomonas aeruginosa was 21 mm; in the experiment with Escherichia coli, 23 mm; in the experiment with Streptococcus pyogenes, 20 mm; in the experiment on Staphylococcus aureus, 21 mm.
Turning to `OC(Cn1cncn1)(Cn1cncn1)c1ccc(F)cc1F` [FLUCONAZOLE], the zone of inhibition at 50000 µg/mL with Aspergillus clavatus and in the experiment with Candida albicans was 24 mm throughout.
